Test results from patent US4304726A, “Process for the preparation of cholesterol derivatives” (The Green Cross Corporation, priority 1979, dated 1981).

Columns and labels:
[1] = Japanese Kokai No. 104,735/1978, cited from earlier work; for immunosuppressive effect: particularly cell-mediated
[2] = system: PHA reaction; experiment: PHA reaction, 50% inhibitory concentration (immunosuppressive action in vitro); assay type: cell-based; conditions: ester form as emulsion with polyoxyethylene-polyoxypropylene copolymer, salt form as aqueous solution; for IC50: read-out: Concentration for 50% inhibition
Procedure: In accordance with the PHA method by Cooparband et al. [The Journal of Immunology, 109, (1), 154 (1972)], the compounds of this invention were tested for the 50% inhibitory concentration in the PHA reaction. Also, the effect of IRA (Immunoregulatory α-globulin) obtained according to the method of Occhino et al. [The Journal of Immunology, 110, (3), 685 (1973)] was shown as comparative test data. Among these compounds, those of the ester form were used in emulsion employing a copolymer of polyoxyethylene-polyoxypropylene having molecular weight of 8350 as a surfactant, and those of the salt form were used as aqueous solutions.

[3] = system: carrageenin edema of hind footpad; experiment: Carrageenin hind footpad edema in rats (anti-inflammatory action); assay type: in vivo; conditions: 50 mg/kg intraperitoneally 1 h before carrageenin, 4 hours after inoculation
Procedure: Using rats, each of derivatives of 7-hydroxycholesterol and of 7-ketocholesterol shown in Table 2 was administered intraperitoneally to 5 rats of each group in a dose of 50 mg/kg (physiologically isotonic aqueous solution with a concentration of 2.0% by weight), and one hour after the administration, each 0.05 ml of 1% aqueous carrageenin solution as an inflammation-causing substance was subcutaneously inoculated at the hind footpad.
After 4 hours from the inoculation of carrageenin, the size of edema caused on the footpad was measured by means of a volume differential meter to compare with that of the control group which was given to the physiological sodium chloride aqueous solution.
The ester samples administered were in the form of emulsion employing a phospholipid as a surfactant, and the salt samples were in the form of physiologically isotonic solution.

[4] = system: rats; experiment: Acute toxicity test in rats; assay type: in vivo; conditions: intraperitoneal, 250, 500, 750 or 1000 mg/kg, 5-days' observation
Procedure: Acute toxicity tests were performed using rats, each group consisting of 5 rats each weighing approximately 200 g, on 7-ketocholesteryl hydrogen succinate, 7-ketocholesteryl hydrogen phthalate, sodium 7-ketocholesteryl succinate, ammonium 7-ketocholesteryl succinate, 7-hydroxycholesteryl hydrogen succinate, 7β-hydroxycholesteryl hydrogen phthalate, sodium 7-hydroxycholesteryl succinate, and sodium 7β-hydroxycholesteryl phthalate. Each of the compounds of salt type was made into a physiologically isotonic aqueous solution, and each of the compounds of ester type was dispersed with a surfactant and by ultrasonic wave treatment to give a uniform dispersion. Thereafter, each of them was administered intraperitoneally in an amount of 250 mg/kg, 500 mg/kg, 750 mg/kg, or 1000 mg/kg. After 5-days' observation, no rat died.

SMILES	anti-inflammatory effect [1]	immunosuppressive effect [1]	IC50 [2]	Swelling rate of edema ([3]; control 82, 50 mg/kg)	death of rats (acute toxicity) [4]	Swelling rate of edema ([3]; control 82)	Concentration for 50% inhibition [2]
CC(C)CCC[C@@H](C)[C@H]1CC[C@H]2[C@@H]3C(O)C=C4C[C@@H](O)CC[C@]4(C)[C@H]3CC[C@]12C (stereo partly shown) [7-hydroxycholesterol]	effective	effective as immunosuppressive agent					
CC(C)CCC[C@@H](C)[C@H]1CC[C@H]2[C@@H]3C(O)C=C4C[C@@H](OC(=O)CCC(=O)O)CC[C@]4(C)[C@H]3CC[C@]12C (stereo partly shown) [7-hydroxycholesteryl hydrogen succinate]			3 mg/L	29%	no rat died		
CC(C)CCC[C@@H](C)[C@H]1CC[C@H]2[C@@H]3C(=O)C=C4C[C@@H](O)CC[C@]4(C)[C@H]3CC[C@]12C [7-ketocholesterol]	effective	effective as immunosuppressive agent					
CC(C)CCC[C@@H](C)[C@H]1CC[C@H]2[C@@H]3C(=O)C=C4C[C@@H](OC(=O)c5ccccc5C(=O)O)CC[C@]4(C)[C@H]3CC[C@]12C [7-ketocholesteryl hydrogen phthalate]			4 mg/L		no rat died	28%	
CC(C)CCC[C@@H](C)[C@H]1CC[C@H]2[C@@H]3C(=O)C=C4C[C@@H](OC(=O)CCC(=O)O)CC[C@]4(C)[C@H]3CC[C@]12C [7-ketocholesteryl hydrogen succinate]			4 mg/L		no rat died	30%	
CC(C)CCC[C@@H](C)[C@H]1CC[C@H]2[C@@H]3[C@@H](O)C=C4C[C@@H](OC(=O)c5ccccc5C(=O)O)CC[C@]4(C)[C@H]3CC[C@]12C [7β-hydroxycholesteryl hydrogen phthalate]			3 mg/L	30%	no rat died		
CC(C)CCC[C@@H](C)[C@H]1CC[C@H]2[C@@H]3C(O)C=C4C[C@@H](OC(=O)CCC(=O)O)CC[C@]4(C)[C@H]3CC[C@]12C (stereo partly shown) [Sodium 7-hydroxycholesteryl succinate, sodium 7-hydroxycholesteryl succinate]				28%	no rat died		3 µg/mL
CC(C)CCC[C@@H](C)[C@H]1CC[C@H]2[C@@H]3[C@@H](O)C=C4C[C@@H](OC(=O)c5ccccc5C(=O)O)CC[C@]4(C)[C@H]3CC[C@]12C [Sodium 7β-hydroxycholesteryl phthalate]				31%	no rat died		4 µg/mL
